Biological target: cloned h5-HT2A receptor (Homo sapiens, UniProt P28223)
Experiment: 5-HT2A competitive radioligand binding assay
Conditions: ratio of H1 Ki to 5-HT2A Ki

cloned h5-HT2A receptor, sequence (P28223 whole entry): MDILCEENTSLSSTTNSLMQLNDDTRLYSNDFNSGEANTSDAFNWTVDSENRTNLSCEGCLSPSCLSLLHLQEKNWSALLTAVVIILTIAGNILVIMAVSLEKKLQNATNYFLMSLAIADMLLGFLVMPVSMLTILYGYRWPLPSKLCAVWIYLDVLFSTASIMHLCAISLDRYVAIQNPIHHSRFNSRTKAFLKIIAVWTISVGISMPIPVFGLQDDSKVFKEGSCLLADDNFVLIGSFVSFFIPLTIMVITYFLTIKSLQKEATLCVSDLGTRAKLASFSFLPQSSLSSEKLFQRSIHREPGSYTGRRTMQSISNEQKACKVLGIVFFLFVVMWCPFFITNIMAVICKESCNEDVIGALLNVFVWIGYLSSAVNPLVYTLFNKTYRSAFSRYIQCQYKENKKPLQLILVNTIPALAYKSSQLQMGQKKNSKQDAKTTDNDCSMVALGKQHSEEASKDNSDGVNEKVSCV

Which “selectivity for 5-HT2A over the H1 receptor” value does the source give for `COc1ccc2c3c(ccc2c1)Cc1ccccc1C3CN` (stereo not shown) [Compound 2b, (7,12-dihydrotetraphene-3-methoxy-12-yl)methanamine] here?
Its value is 100 fold.

— article PMC3252747 (Bioorganic & medicinal chemistry letters, 2009)
